Converted amounts (≈) assume the structure as drawn.
Columns and labels:
Type in all cases: functional
Enterococcus sp. [1] = assay: In vitro antibacterial against Enterococcus species. by agar disc diffusion assay method with respect to imipenem
Enterobacter sp. [2] = assay: In vitro antibacterial against Enterobacter species. by agar disc diffusion assay method with respect to imipenem
Staphylococcus sp. [3] = assay: In vitro antibacterial activity against Methicillin-resistant coagulase negative Staphylococci (MRCNS) by agar disc diffusion assay method with respect to imipenem
Sus scrofa [4] = species on record: Sus scrofa; assay: DHP-I (porcine) susceptibility with respect to imipenem
Klebsiella sp. [5] = assay: In vitro antibacterial against Klebsiella species. by agar disc diffusion assay method with respect to imipenem
Pseudomonas aeruginosa = assay: In vitro antibacterial against Pseudomonas aeruginosa by agar disc diffusion assay method
Proteus [6] = assay: In vitro antibacterial against Proteus species. by agar disc diffusion assay method with respect to imipenem
Escherichia coli [7] = assay: In vitro antibacterial against Escherichia coli by agar disc diffusion assay method with respect to imipenem
Staphylococcus aureus [8] = assay: In vitro antibacterial activity against Methicillin-resistant Staphylococcus aureus (MRSA) by agar disc diffusion assay method with respect to imipenem
Serratia [9] = assay: In vitro antibacterial against Serratia species. by agar disc diffusion assay method with respect to imipenem
Staphylococcus aureus [10] = assay: In vitro antibacterial activity against Methicillin-susceptible Staphylococcus aureus (MSSA) by agar disc diffusion assay method with respect to imipenem
Staphylococcus aureus [11] = assay: In vitro antibacterial activity against Methicillin-resistant Staphylococcus aureus (MRSA) by broth microtube dilution method; value ranges from 128 to >128
Staphylococcus aureus [12] = assay: In vitro antibacterial activity against Methicillin-susceptible Staphylococcus aureus (MSSA) by agar disc diffusion assay method
Enterobacter sp. [13] = assay: In vitro antibacterial against Enterobacter species. by agar disc diffusion assay method
Klebsiella sp. [14] = assay: In vitro antibacterial against Klebsiella species. by agar disc diffusion assay method
Enterococcus sp. [15] = assay: In vitro antibacterial against Enterococcus species. by agar disc diffusion assay method
Staphylococcus sp. [16] = assay: In vitro antibacterial activity against Methicillin-resistant coagulase negative Staphylococci (MRCNS) by broth microtube dilution method; value ranges from 128 to >128
Sus scrofa [17] = species on record: Sus scrofa; assay: DHP-I(porcine) susceptibility was determined
Escherichia coli [18] = assay: In vitro antibacterial against Escherichia coli by agar disc diffusion assay method
Proteus [19] = assay: In vitro antibacterial against Proteus species. by agar disc diffusion assay method
Serratia [20] = assay: In vitro antibacterial against Serratia species. by agar disc diffusion assay method
Staphylococcus sp. [21] = assay: In vitro antibacterial activity against Methicillin-resistant coagulase negative Staphylococci (MRCNS) by broth microtube dilution method; value ranges from 1-4
Staphylococcus aureus [22] = assay: In vitro antibacterial activity against Methicillin-resistant Staphylococcus aureus (MRSA) by broth microtube dilution method; value ranges from 0.5-8
Staphylococcus sp. [23] = assay: In vitro antibacterial activity against Methicillin-resistant coagulase negative Staphylococci (MRCNS) by broth microtube dilution method; value ranges from 4-8
Staphylococcus aureus [24] = assay: In vitro antibacterial activity against Methicillin-resistant Staphylococcus aureus (MRSA) by broth microtube dilution method
Staphylococcus aureus [25] = assay: In vitro antibacterial activity against Methicillin-resistant Staphylococcus aureus (MRSA) by broth microtube dilution method; value ranges from 1-16
Staphylococcus sp. [26] = assay: In vitro antibacterial activity against Methicillin-resistant coagulase negative Staphylococci (MRCNS) by broth microtube dilution method; value ranges from 4-32
Staphylococcus sp. [27] = assay: In vitro antibacterial activity against Methicillin-resistant coagulase negative Staphylococci (MRCNS) by broth microtube dilution method; value ranges from 2-16
Staphylococcus aureus [28] = assay: In vitro antibacterial activity against Methicillin-resistant Staphylococcus aureus (MRSA) by broth microtube dilution method; value ranges from 1-8
Staphylococcus aureus [29] = assay: In vitro antibacterial activity against Methicillin-resistant Staphylococcus aureus (MRSA) by broth microtube dilution method; value ranges from 0.5-4

Compound	Relative potency (Enterococcus sp. [1])	Relative potency (Enterobacter sp. [2])	Relative potency (Staphylococcus sp. [3])	Relative susceptibility (Sus scrofa [4])	Relative potency (Klebsiella sp. [5])	Relative potency (Pseudomonas aeruginosa)	Relative potency (Proteus [6])	Relative potency (Escherichia coli [7])	Relative potency (Staphylococcus aureus [8])	Relative potency (Serratia [9])	Relative potency (Staphylococcus aureus [10])	further results
C[C@@H](O)[C@H]1C(=O)N2C(C(=O)[O-])=C(c3ccc4c5cccnc5n(C)c4c3)C[C@H]12.[Na+]	1.5 fold	0.041 fold	4.1 fold	0.02	0.054 fold	0.007 fold	0.59 fold	0.15 fold	4.9 fold	0.051 fold	0.15 fold	
CC[n+]1cccc2c3cc(C4=C(C(=O)[O-])N5C(=O)[C@H]([C@@H](C)[O-])[C@H]5C4)ccc3n(C)c21.[Na+]	3.7 fold	1.4 fold	277 fold	0.01	1.4 fold	0.035 fold	11 fold	2.8 fold	21 fold	3.2 fold	0.43 fold	
C[C@@H](O)[C@H]1C(=O)N2C(C(=O)O)=C(SCCNC=N)C[C@H]12 [IMIPENEM ANHYDROUS]												MIC90 (Staphylococcus aureus [11]): > 128 µg/mL; MIC (Staphylococcus aureus [12]): 0.009 µg/mL (≈ 0.0301 µM); MIC (Enterobacter sp. [13]): 0.49 µg/mL (≈ 1.64 µM); MIC (Klebsiella sp. [14]): 0.59 µg/mL (≈ 1.97 µM); MIC (Enterococcus sp. [15]): 2.8 µg/mL (≈ 9.35 µM); MIC90 (Staphylococcus sp. [16]): > 128 µg/mL; Relative susceptibility (Sus scrofa [17]): 1; MIC (Escherichia coli [18]): 0.68 µg/mL (≈ 2.27 µM); MIC (Pseudomonas aeruginosa): 0.31 µg/mL (≈ 1.04 µM); MIC (Proteus [19]): 0.95 µg/mL (≈ 3.17 µM); MIC (Serratia [20]): 0.76 µg/mL (≈ 2.54 µM)
C[C@@H]([O-])[C@H]1C(=O)N2C(C(=O)[O-])=C(c3ccc4[nH]c5c[n+](C)ccc5c4c3)C[C@H]12.[Na+]	2.8 fold	7.7 fold	166 fold	0.027	2.8 fold	0.027 fold	25 fold	9.2 fold	28 fold	12 fold	0.42 fold	MIC50 (Staphylococcus sp. [21]): 4 µg/mL; MIC90 (Staphylococcus sp. [21]): 4 µg/mL; MIC50 (Staphylococcus aureus [22]): 2 µg/mL; MIC90 (Staphylococcus aureus [22]): 4 µg/mL
CN[C@H](CC(C)C)C(=O)N[C@H]1C(=O)N[C@@H](CC(N)=O)C(=O)N[C@H]2C(=O)N[C@H]3C(=O)N[C@H](C(=O)N[C@H](C(=O)O)c4cc(O)cc(O)c4-c4cc3ccc4O)[C@H](O)c3ccc(c(Cl)c3)Oc3cc2cc(c3O[C@@H]2O[C@H](CO)[C@@H](O)[C@H](O)[C@H]2O[C@H]2C[C@](C)(N)[C@H](O)[C@H](C)O2)Oc2ccc(cc2Cl)[C@H]1O [VANCOMYCIN]												MIC90 (Staphylococcus sp. [23]): 4 µg/mL (≈ 2.76 µM); MIC90 (Staphylococcus aureus [24]): 2 µg/mL (≈ 1.38 µM)
C[C@@H](O)[C@H]1C(=O)N2C(C(=O)O)=C(c3ccc4c(c3)c3ccncc3n4C)C[C@H]12				0.034								
C[C@@H](O)[C@H]1C(=O)N2C(C(=O)[O-])=C(c3ccc4c(c3)c3cccnc3n4C)C[C@H]12.[Na+]	2.1 fold	0.034 fold	8.6 fold	0.06	0.059 fold	0.007 fold	1.4 fold	0.12 fold	8 fold	0.1 fold	0.17 fold	MIC50 (Staphylococcus aureus [25]): 4 µg/mL; MIC90 (Staphylococcus aureus [25]): 8 µg/mL; MIC50 (Staphylococcus sp. [26]): 8 µg/mL; MIC90 (Staphylococcus sp. [26]): 16 µg/mL
C[C@@H](O)[C@H]1C(=O)N2C(C(=O)[O-])=C(c3ccc4c(c3)c3c[n+](C)ccc3n4C)C[C@H]12	3.7 fold	0.94 fold	40 fold	0.007	1.2 fold	0.026 fold	14 fold	1.5 fold	14 fold	2.1 fold	0.59 fold	MIC50 (Staphylococcus sp. [27]): 8 µg/mL (≈ 20.4 µM); MIC90 (Staphylococcus sp. [27]): 16 µg/mL (≈ 40.9 µM); MIC50 (Staphylococcus aureus [28]): 4 µg/mL (≈ 10.2 µM); MIC90 (Staphylococcus aureus [28]): 8 µg/mL (≈ 20.4 µM)
C[C@@H]([O-])[C@H]1C(=O)N2C(C(=O)[O-])=C(c3ccc4c(c3)c3ccc[n+](C)c3n4C)C[C@H]12.[Na+]	3.9 fold	2.8 fold	313 fold	0.05	3 fold	0.057 fold	26 fold	4.8 fold	30 fold	4.5 fold	0.49 fold	MIC50 (Staphylococcus sp. [21]): 4 µg/mL; MIC90 (Staphylococcus sp. [21]): 4 µg/mL; MIC50 (Staphylococcus aureus [29]): 2 µg/mL; MIC90 (Staphylococcus aureus [29]): 4 µg/mL
C[C@@H]([O-])[C@H]1C(=O)N2C(C(=O)[O-])=C(c3ccc4c(c3)c3cc[n+](C)cc3n4C)C[C@H]12.[Na+]	3.8 fold	2.5 fold	287 fold	0.01	2.5 fold	0.035 fold	21 fold	3.8 fold	23 fold	3.6 fold	0.38 fold	MIC50 (Staphylococcus sp. [21]): 4 µg/mL; MIC90 (Staphylococcus sp. [21]): 4 µg/mL; MIC50 (Staphylococcus aureus [28]): 2 µg/mL; MIC90 (Staphylococcus aureus [28]): 4 µg/mL
C[C@@H](O)[C@H]1C(=O)N2C(C(=O)[O-])=C(c3ccc4c(c3)c3ncccc3n4C)C[C@H]12.[Na+]	1.2 fold	0.065 fold	4.5 fold	1.8	0.16 fold	0.006 fold	6.6 fold	0.31 fold	5.3 fold	0.37 fold	0.2 fold	
C[C@@H](O)[C@H]1C(=O)N2C(C(=O)[O-])=C(c3ccc4c(c3)c3cnccc3n4C)C[C@H]12.[Na+]	4 fold	0.98 fold	40 fold	0	0.94 fold	0.018 fold	20 fold	1.8 fold	11 fold	4.8 fold	0.56 fold	MIC50 (Staphylococcus sp. [27]): 8 µg/mL; MIC90 (Staphylococcus sp. [27]): 16 µg/mL; MIC50 (Staphylococcus aureus [22]): 4 µg/mL; MIC90 (Staphylococcus aureus [22]): 8 µg/mL
C[C@@H](O)[C@H]1C(=O)N2C(C(=O)[O-])=C(c3cccc4c3c3cccnc3n4C)C[C@H]12.[Na+]	1.4 fold	0.092 fold	12 fold	0	0.08 fold	0.009 fold	1.2 fold	0.25 fold	13 fold	0.38 fold	0.26 fold	MIC50 (Staphylococcus sp. [27]): 8 µg/mL; MIC90 (Staphylococcus sp. [27]): 16 µg/mL; MIC50 (Staphylococcus aureus [25]): 4 µg/mL; MIC90 (Staphylococcus aureus [25]): 8 µg/mL
C[C@@H]([O-])[C@H]1C(=O)N2C(C(=O)[O-])=C(c3ccc4c(c3)c3c(ccc[n+]3C)n4C)C[C@H]12.[Na+]	2.5 fold	1.2 fold	27 fold	0	1.1 fold	0.018 fold	9.3 fold	1.3 fold	12 fold	2.2 fold	0.58 fold	MIC50 (Staphylococcus sp. [27]): 8 µg/mL; MIC90 (Staphylococcus sp. [27]): 16 µg/mL; MIC50 (Staphylococcus aureus [28]): 4 µg/mL; MIC90 (Staphylococcus aureus [28]): 8 µg/mL

— ChEMBL document CHEMBL1128873, “The synthesis and antibacterial activity of 2-carbolinyl-carbapenems: potent anti-MRSA/MRCNS agents” (1995)
